# Source: paper PMC5520492, “Inhibition of DNA2 nuclease as a therapeutic strategy targeting replication stress in cancer cells” (Oncogenesis, 2017)
# Experiments:
# [1] = system: AsPC-1, PANC-1 versus DT-PD59 cells; assay: MTT proliferation, pancreatic cell lines; format: cell-based, human; settings: 48-h treatment
# Procedure: Figure 5 Oncogene induction enhances sensitivity of cancer cells to NSC-105808. (a-e) Graphs showing proliferation of indicated cell lines in response to a 48-h treatment with the indicated concentrations of NSC-105808. Proliferation relative to cells treated with vehicle alone was determined by the 3-(4,5-dimethylthiazol-2-yl)-2,5-diphenyltetrazolium bromide (MTT) assay. Each value represents the mean±s.e.m. from three independent experiments. (a) Proliferation of control pancreatic epithelial cells DT-PD59 and transformed pancreatic cancer cells AsPC-1 and PANC-1. (b) Proliferation of normal breast epithelial cells MCF10A and breast cancer cells Hs578T and BT549. (c) Proliferation of MCF10A cells with or without H-Ras expression. H-Ras was induced with doxycycline (2 μg/ml). […]
# Cell proliferation was measured by 3-(4,5-dimethylthiazol-2-yl)-2,5-diphenyltetrazolium bromide (Sigma) reduction (Supplementary Materials and Methods).
# To determine the cell proliferation rate, 1000 cells/well were seeded in a 96-well plate in a total volume of 100 µl in triplicate in each experiment. […] Plates were read at 490 nm and 650 nm (background) in a
# microplate reader (Molecular Devices). After the subtraction of background, cell viability was calculated as fold change relative to control cells.
# EXO1 = target: T1, EXO1 (Homo sapiens, UniProt Q9UQ84); assay: EXO1 nuclease assay (2 kb dsDNA degradation); format: biochemical; settings: 10 µM; EXO1 5 nM
# T1 construct: made in house
# T1 sequence (Q9UQ84 1-846): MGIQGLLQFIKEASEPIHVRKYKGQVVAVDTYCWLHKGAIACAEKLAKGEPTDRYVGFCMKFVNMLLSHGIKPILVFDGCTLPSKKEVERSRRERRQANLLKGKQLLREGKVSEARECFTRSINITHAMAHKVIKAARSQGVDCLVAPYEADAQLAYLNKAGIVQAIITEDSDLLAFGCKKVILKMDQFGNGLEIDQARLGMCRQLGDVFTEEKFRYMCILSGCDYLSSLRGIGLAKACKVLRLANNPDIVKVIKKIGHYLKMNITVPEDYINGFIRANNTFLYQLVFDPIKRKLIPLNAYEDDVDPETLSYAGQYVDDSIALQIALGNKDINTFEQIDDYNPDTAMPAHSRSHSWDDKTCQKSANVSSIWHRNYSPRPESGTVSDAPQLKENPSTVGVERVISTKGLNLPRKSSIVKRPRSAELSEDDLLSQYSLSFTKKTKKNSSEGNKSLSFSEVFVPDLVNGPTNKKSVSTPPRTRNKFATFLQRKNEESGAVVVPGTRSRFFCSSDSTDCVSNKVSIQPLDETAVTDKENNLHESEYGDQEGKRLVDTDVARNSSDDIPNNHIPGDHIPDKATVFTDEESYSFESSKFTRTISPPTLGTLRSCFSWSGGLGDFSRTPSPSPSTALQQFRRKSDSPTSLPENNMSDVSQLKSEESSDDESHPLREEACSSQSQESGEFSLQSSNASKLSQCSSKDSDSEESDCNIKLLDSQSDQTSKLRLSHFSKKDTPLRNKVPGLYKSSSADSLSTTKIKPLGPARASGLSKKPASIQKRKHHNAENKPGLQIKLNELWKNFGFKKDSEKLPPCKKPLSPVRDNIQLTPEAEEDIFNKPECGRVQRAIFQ
# Procedure: Nuclease assays were performed in buffer R (20 mM Na-HEPES pH 7.5, 1 mM ATP, 0.1 mM DTT, 100 μg/ml bovine serum albumin, 0.05% Triton X-100, 2 mM MgCl2, 100 mM KCl) and contained 0.5 nM ends (2-kb substrate) or 5 nM ends (the ssDNA oligonucleotide PSOL6929) of DNA. Reactions containing Bloom syndrome also included an ATP regenerating system consisting of 10 mM creatine phosphate and 50 μg/ml creatine kinase. In control reactions, DMSO was used in place of the inhibitor. Reactions with DNA2 alone were incubated at 30 °C, and those with DNA2-Bloom syndrome-Replication protein A and EXO1 were incubated at 37 °C for the indicated times. […] Gels were dried onto DEAE paper on top of Whatman filter paper (GE, Issaquah, WA, USA) and then analyzed in a BioRad Personal Molecular Imager FX phosphorimager. Band intensity was quantified using Image Lab software (Bio-Rad, Hercules, CA, USA). The fraction of DNA substrate digested was determined by measuring the amount of substrate remaining and normalizing to the total substrate in the negative control lane containing no protein.
# Figure S2. […] (b) Plots showing quantitation of the experiments shown in a. […] (d) Plots showing quantitation of the experiments shown in c. […] (f) Plot showing quantitation of the experiment in e. […]
structure (smiles),measurement,setting,value
"NC1=C(Br)C(=O)c2ncccc2C1=O [NSC-105808, 6-amino-7-bromoquinoline-5,8-dione]",Sensitivity of transformed pancreatic cancer cell lines compared with non-transformed DT-PD59,[1],more sensitive
same,Effect on nuclease activity of EXO1,EXO1,does not inhibit
